Values joined by “and” are separate entries in the source; they are usually repeats but may differ in a detail not shown here. Equal entries are not always repeated. Where two headings read alike, the source gives them in different places.
Key:
[1] = test system: HFGR-I P. falciparum (elevated proline homeostasis and PfcProRS^L482H); assay: P. falciparum ABS growth assay, SYBR Green, 72 h, HFGR-I parasites; format: cell-based, Plasmodium falciparum; conditions: for EC50: Plasmodium falciparum, DD2, read-out: Dd2 (EC50 [nM]) HFGR1 mean
Source text: (§1) Parasites were maintained under standard culture conditions as described previously[56],[57]. […] The P. falciparum Dd2 cell lines used in this study (Dd2-2D4, halofuginone-induced, and HFGR-I) have previously undergone whole genome sequencing in our labs. They were also routinely assayed and EC50 values determined using the ABS growth assay (see below) with a panel of standard antimalarial compounds, including halofuginone which has differential activity for the three Dd2 lines used in these experiments. Data were cross-referenced for consistency with literature reported values and data previously acquired in the lab.
(§2) This assay was performed as previously described. In short, P. falciparum erythrocytic-stage parasites at 1% parasitemia and 1% hematocrit in RPMI + 0.5% Albumax were seeded at 40 μL/well in 384-well plates with test compounds in triplicate, dose-response format with 10 μM dihydroartemisinin as a kill-control and blank (no compound) wells as a growth-control. […] After 72 h, growth was quantified by measuring fluorescence (Molecular Devices SpectraMax iD5) following SYBR Green 1 staining. Data were analyzed in Excel and plotted in PRISM (V. 8.4.3–9.1.0, GraphPad).

[2] = test system: halofuginone-induced P. falciparum (elevated proline homeostasis); assay: P. falciparum ABS growth assay, SYBR Green, 72 h, halofuginone-induced parasites; format: cell-based, Plasmodium falciparum; conditions: for EC50: Plasmodium falciparum, DD2
Source text: as §1, §2

HsProRS = HsProRS (Homo sapiens, UniProt P07814); assay: TR-FRET ligand displacement assay with tracer MAT379 (CoraFluor-1-Halo and anti-His6 antibody formats); format: binding; parameters: made in house; host or cells: E. coli SoluBL-21
Chain of HsProRS (P07814 996-1512): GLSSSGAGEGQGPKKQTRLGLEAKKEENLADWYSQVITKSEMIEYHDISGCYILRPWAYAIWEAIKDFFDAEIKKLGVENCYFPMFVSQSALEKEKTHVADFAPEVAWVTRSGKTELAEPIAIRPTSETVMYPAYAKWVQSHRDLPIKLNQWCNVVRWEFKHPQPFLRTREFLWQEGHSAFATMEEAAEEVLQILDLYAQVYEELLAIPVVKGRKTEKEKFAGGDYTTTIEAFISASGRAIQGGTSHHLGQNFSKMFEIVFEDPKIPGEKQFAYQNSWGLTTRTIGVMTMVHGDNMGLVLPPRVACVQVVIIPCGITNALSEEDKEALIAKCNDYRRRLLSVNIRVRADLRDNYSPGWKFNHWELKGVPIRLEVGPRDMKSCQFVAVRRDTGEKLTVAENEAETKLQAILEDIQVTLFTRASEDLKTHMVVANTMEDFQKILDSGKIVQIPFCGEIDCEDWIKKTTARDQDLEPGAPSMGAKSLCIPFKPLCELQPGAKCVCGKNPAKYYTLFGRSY

P. falciparum Dd2-2D4 = assay: P. falciparum asexual blood stage (ABS) growth assay, SYBR Green, 72 h, wild-type parasites; format: cell-based, Plasmodium falciparum; conditions: for EC50: Plasmodium falciparum, DD2
PfcProRS = target: T1, PfcProRS (Plasmodium falciparum, UniProt Q8I5R7); format: binding; conditions: for Normalized response, dose-response replicates (SI Fig 14): replicates 1-3
T1 construct: made in house; host or cells: E. coli SoluBL-21
T1 sequence (Q8I5R7 249-746): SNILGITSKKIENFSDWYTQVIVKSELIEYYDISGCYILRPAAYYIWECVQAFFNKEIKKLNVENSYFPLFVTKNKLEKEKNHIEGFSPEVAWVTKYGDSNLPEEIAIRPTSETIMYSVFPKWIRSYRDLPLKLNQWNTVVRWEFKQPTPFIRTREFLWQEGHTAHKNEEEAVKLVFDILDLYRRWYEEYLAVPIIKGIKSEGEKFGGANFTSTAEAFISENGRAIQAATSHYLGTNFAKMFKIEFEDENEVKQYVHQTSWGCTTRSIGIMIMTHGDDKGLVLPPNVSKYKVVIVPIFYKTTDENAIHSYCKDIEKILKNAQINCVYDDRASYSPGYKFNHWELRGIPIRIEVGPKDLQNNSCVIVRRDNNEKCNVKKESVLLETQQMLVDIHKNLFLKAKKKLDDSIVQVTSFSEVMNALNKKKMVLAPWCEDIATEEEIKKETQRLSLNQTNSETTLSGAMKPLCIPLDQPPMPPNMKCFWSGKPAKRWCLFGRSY

[3] = HsProRS (KD [nM]) + 100 μM proline mean, + 100 μM proline
[4] = SI Fig 16b, values on -log scale, read-out: ABS - Dd2-2D4 (converted)

CC(C)N(C(=O)Nc1nccnc1C(=O)NC1Cc2ccccc2C1)C(C)C [MAT107 (5)]
EC50 [1]: 6850 nM | EC50 ([2]; halofuginone-induced, bound given in μM, read-out: Dd2 EC50 halofuginone-induced, bound): > 10 µM | % signal at 10 μM, halofuginone-induced ([2]; halofuginone-induced, 10 μM): 58.7% | IC50 (HsProRS): > 10000 nM | Kd (HsProRS; [3]): 1020 nM | HsProRS % signal at 10 μM (HsProRS; no added proline/ATP (-), 10 μM): 63.6% | % signal at 10 μM, wildtype (Dd2-2D4) (P. falciparum Dd2-2D4; wildtype (Dd2-2D4), 10 μM): 80.9%

Nc1ncnc2c1ncn2[C@@H]1O[C@H](COS(=O)(=O)NC(=O)[C@H]2CCCN2)[C@@H](O)[C@H]1O [D-ProSA, reference compound]
EC50 [1]: 2430 nM | EC50 ([2]; read-out: Dd2 (EC50 [nM]) halofuginone-induced mean): 2.73 µM | EC50 (P. falciparum Dd2-2D4; [4]): 2550 nM | EC50 (P. falciparum Dd2-2D4; read-out: Dd2 (EC50 [nM]) wildtype (Dd2-2D4) mean): 2550 nM

NCCCCCC(=O)NC1CCN(C(=O)Nc2nccnc2C(=O)NC2Cc3ccccc3C2)CC1 [compound 42]
dose-response value, Replicates 1-3 (SI Fig 2f) ([1]; Log[inhibitor] (M) -8.699): 97 | Kd (HsProRS; [3]): 780 nM | Kd (HsProRS; HsProRS (KD [nM]) mean, no added proline/ATP (-)): 674 nM | EC50 (P. falciparum Dd2-2D4; [4]): 3120 nM | Normalized response, dose-response replicates (SI Fig 14) (PfcProRS; Log[inhibitor] (M) -5.000): 2.49E-01 and 1.76E-01 and 2.08E-01 | Normalized response, dose-response replicates (SI Fig 14) (PfcProRS; Log[inhibitor] (M) -5.301): 3.00E-01 and 2.27E-01 and 1.95E-01 | Normalized response, dose-response replicates (SI Fig 14) (PfcProRS; Log[inhibitor] (M) -5.601): 3.22E-01 and 3.31E-01 and 4.26E-01 | Normalized response, dose-response replicates (SI Fig 14) (PfcProRS; Log[inhibitor] (M) -5.904): 5.98E-01 and 5.09E-01 and 6.07E-01 | Normalized response, dose-response replicates (SI Fig 14) (PfcProRS; Log[inhibitor] (M) -6.208): 6.69E-01 and 7.19E-01 and 7.06E-01 | Normalized response, dose-response replicates (SI Fig 14) (PfcProRS; Log[inhibitor] (M) -6.509): 8.50E-01 and 8.42E-01 and 7.76E-01 | Normalized response, dose-response replicates (SI Fig 14) (PfcProRS; Log[inhibitor] (M) -6.796): 8.57E-01 and 7.95E-01 and 8.50E-01 | Normalized response, dose-response replicates (SI Fig 14) (PfcProRS; Log[inhibitor] (M) -7.108): 9.38E-01 and 9.24E-01 and 9.33E-01 | Normalized response, dose-response replicates (SI Fig 14) (PfcProRS; Log[inhibitor] (M) -7.409): 8.48E-01 and 9.09E-01 and 8.32E-01 | Normalized response, dose-response replicates (SI Fig 14) (PfcProRS; Log[inhibitor] (M) -7.710): 1.01E+00 and 1.02E+00 and 9.56E-01 | Normalized response, dose-response replicates (SI Fig 14) (PfcProRS; Log[inhibitor] (M) -8.000): 9.91E-01 and 1.13E+00 and 9.71E-01 | Normalized response, dose-response replicates (SI Fig 14) (PfcProRS; Log[inhibitor] (M) -8.301): 9.70E-01 and 1.02E+00 and 1.00E+00 | Normalized response, dose-response replicates (SI Fig 14) (PfcProRS; Log[inhibitor] (M) -8.602): 1.01E+00 and 9.47E-01 and 9.02E-01 | Normalized response, dose-response replicates (SI Fig 14) (PfcProRS; Log[inhibitor] (M) -9.000): 1.03E+00 and 8.54E-01 and 9.74E-01 | Normalized response, dose-response replicates (SI Fig 14) (PfcProRS; Log[inhibitor] (M) -9.301): 1.02E+00 and 9.76E-01 and 9.47E-01 | PfcProRS -- best Kd (PfcProRS; SI Fig 16a, values on -log scale): 6.530

Reference: publication PMC9403976, “Elucidating the path to Plasmodium prolyl-tRNA synthetase inhibitors that overcome halofuginone resistance” (Nature Communications, 2022)
